Molecular target: human 11b-hsd-1 (Homo sapiens, UniProt P28845)
Assay: Inhibition constant Ki of human 11b-hsd-1 (3H-cortisone to 3H-cortisol conversion, HPLC)
Format: biochemical
Details: for inhibition at 0.1 µM / % inh @ 0.1 μM: compound at 0.1 μM; for Ki: apparent Ki, human 11b-hsd-1, read-out: Ki app

human 11b-hsd-1, sequence (P28845 whole entry): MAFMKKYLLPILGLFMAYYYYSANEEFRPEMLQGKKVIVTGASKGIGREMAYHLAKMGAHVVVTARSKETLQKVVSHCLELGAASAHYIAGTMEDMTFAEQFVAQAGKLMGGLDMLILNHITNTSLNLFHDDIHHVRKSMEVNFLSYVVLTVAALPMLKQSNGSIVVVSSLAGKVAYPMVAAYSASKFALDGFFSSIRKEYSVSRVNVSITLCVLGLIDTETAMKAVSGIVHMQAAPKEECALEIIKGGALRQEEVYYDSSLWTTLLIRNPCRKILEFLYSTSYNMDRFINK

| inhibition at 0.1 µM | Ki | % inh @ 0.1 μM | % inh @ 0.1 μM (0.1 µM) | Structure (SMILES) |
| --- | --- | --- | --- | --- |
| 64% | – | – | – | CN(C(=O)[C@H]1COCCN1CC1CCOCC1)C1CCCCC1 [Example 49] |
| 100% | 1.3 nM | – | – | O=C(NC1CCCCC1)[C@H]1CCCN1CC1CCCC1 [Example 50] |
| 100% | 1 nM | – | – | CC(C)CN1CCC[C@@H]1C(=O)N[C@@H]1CCCc2ccccc21 [Example 51] |
| 100% | 4.6 nM | – | – | N#Cc1ccc(CN2CCC[C@@H]2C(=O)NC2CCCCC2)cc1 [Example 52] |
| 100% | 4.6 nM | – | – | CCOc1ccccc1CNC(=O)[C@H]1CCCN1CC(C)C [Example 53] |
| 94% | 13.2 nM | – | – | CCOc1ccccc1CNC(=O)[C@H]1CCCN1CC1CCCC1 [Example 54] |
| 100% | 3.7 nM | – | – | CCCN1CCC[C@@H]1C(=O)NC1CCCCC1C (stereo partly drawn) [Example 55] |
| 92% | 8 nM | – | – | CCCN1CCC[C@@H]1C(=O)N[C@@H]1CCCc2ccccc21 [Example 56] |
| 81% | 23.4 nM | – | – | CC(C)CN1CCOC[C@@H]1C(=O)NCc1ccccc1F [Example 57] |
| 70% | 28 nM | – | – | CCN1CCC[C@@H]1C(=O)NC1CCCCC1C (stereo partly drawn) [Example 58] |
| 71% | 22 nM | – | – | CC1(C(=O)NC2CCCCC2)CCCN1Cc1ccc(C#N)cc1 (stereo not drawn) [Example 59] |
| 79% | 25 nM | – | – | CCCN1CCCC1(C)C(=O)NC1CCCCC1 (stereo not drawn) [Example 60] |
| 74% | – | – | – | CN1CCC(CN2CCOC[C@@H]2C(=O)NC2C3CC4CC(C3)CC2C4)CC1 (stereo partly drawn) [Example 61] |
| 100% | 1.1 nM | – | – | N#Cc1ccc(CN2CCOC[C@@H]2C(=O)NC2C3CC4CC(C3)CC2C4)cc1 (stereo partly drawn) [Example 62] |
| 100% | 1 nM | – | – | O=C(NC1C2CC3CC(C2)CC1C3)[C@H]1COCCN1CC1CCCC1 (stereo partly drawn) [Example 63] |
| 100% | 1.3 nM | – | – | CC(C)CN1CCOC[C@@H]1C(=O)NC1C2CC3CC(C2)CC1C3 (stereo partly drawn) [Example 64] |
| 100% | 2.6 nM | – | – | CCCN1CCOC[C@@H]1C(=O)NC1C2CC3CC(C2)CC1C3 (stereo partly drawn) [Example 65] |
| 89% | 10 nM | – | – | O=C(NC1C2CC3CC(C2)CC1C3)[C@H]1COCCN1CCO (stereo partly drawn) [Example 66] |
| 100% | 1 nM | – | – | O=C(NC1C2CC3CC(C2)CC1C3)[C@H]1COCCN1Cc1ccccn1 (stereo partly drawn) [Example 67] |
| 93.5% | 2 nM | – | – | O=C(NCC1(O)CCCCCC1)[C@H]1CCCN1CC1CCCC1 [Example 68] |
| 100% | 7 nM | – | – | CC(C)CN1CCC[C@@H]1C(=O)NCC1(O)CCCCC1 [Example 69] |
| 74% | – | – | – | O=C(NC1C2CC3CC(C2)CC1C3)[C@H]1COCCN1CCN1CCCC1 (stereo partly drawn) [Example 70] |
| 83% | – | – | – | CC(C)N1CCC(CN2CCOC[C@@H]2C(=O)NC2C3CC4CC(C3)CC2C4)CC1 (stereo partly drawn) [Example 73] |
| 90% | – | – | – | CC(C)CN1CCC(CN2CCOC[C@@H]2C(=O)NC2C3CC4CC(C3)CC2C4)CC1 (stereo partly drawn) [Example 74] |
| 91% | – | – | – | CCN1CCC(CN2CCOC[C@@H]2C(=O)NC2C3CC4CC(C3)CC2C4)CC1 (stereo partly drawn) [Example 75] |

| inhibition at 0.1 µM | Ki | % inh @ 0.1 μM | % inh @ 0.1 μM (0.1 µM) | Structure (SMILES) |
| --- | --- | --- | --- | --- |
| 14% | – | – | – | CC(C)N1CCC(CN2C[C@H](O)C[C@@H]2C(=O)NC2C3CC4CC(C3)CC2C4)CC1 (stereo partly drawn) [Example 76] |
| 62% | – | – | – | CCN1CCC[C@@H]1C(=O)NC1CCCCC1 [Example 84] |
| 94% | 9 nM | – | – | CCCN1CCC[C@@H]1C(=O)NC1CCCCC1 [Example 85] |
| 100% | < 1 nM | – | – | CC(C)CN1CCC[C@@H]1C(=O)NC1CCCCC1 [Example 86] |
| 54% | – | – | – | CC(C)(O)CN1CCC[C@@H]1C(=O)NC1CCCCC1 [Example 87, 1-(2-Hydroxy-2-methyl-propyl)-pyrrolidine-2-carboxylic acid cyclohexylamide] |
| 94% | 7 nM | – | – | COC(C)(C)CN1CCC[C@@H]1C(=O)NC1CCCCC1 [Example 88, 1-(2-Methoxy-2-methyl-propyl)-pyrrolidine-2-carboxylic acid cyclohexylamide] |
| 92% | – | – | – | CCCN1CCC[C@@H]1C(=O)N[C@@H]1C[C@H]2CC[C@@H]1C2 [Example 89] |
| 100% | – | – | – | CCCN1CCC[C@@H]1C(=O)N[C@H]1C[C@@H]2CC[C@H]1C2 [Example 90] |
| 100% | – | – | – | CCCN1CCC[C@@H]1C(=O)NC1CC2CCC1C2 (stereo partly drawn) [Example 91] |
| – | – | 100% | – | CCCN1CCC[C@@H]1C(=O)NC1CC2CCC1C2 (stereo partly drawn) [Example 92] |
| 100% | 2 nM | – | – | CCCN1CCC[C@@H]1C(=O)NC1CCCCCC1 [Example 93] |
| 86% | 11 nM | – | – | CCCN1CCC[C@@H]1C(=O)NCC1CCCC1 [Example 94] |
| 78% | 39 nM | – | – | CCOCCN1CCC[C@@H]1C(=O)NC1CCCCC1 [Example 95] |
| 84% | 39 nM | – | – | CC(C)OCCN1CCC[C@@H]1C(=O)NC1CCCCC1 [Example 96] |
| – | 7 nM | – | 100% | O=C(NC1CCCCC1)[C@H]1CCCN1CC1CCCO1 (stereo partly drawn) [Example 97] |
| – | – | – | 41% | O=C(NC1CCCCC1)[C@H]1CCCN1CC1CCCO1 (stereo partly drawn) [Example 98] |
| 91% | 8 nM | – | – | O=C(NC1CCCCC1)[C@H]1CCCN1CC1CCOCC1 [Example 99] |
| 100% | 4 nM | – | – | CCCCN1CCC[C@@H]1C(=O)NC1CCCCC1 [Example 100] |
| 100% | 5 nM | – | – | O=C(NC1CCCCC1)[C@H]1CCCN1CC(F)(F)F [Example 101] |
| 91% | 7 nM | – | – | O=C(NC1CCCCC1)[C@H]1CCCN1CC1CC1 [Example 102] |
| 83% | 14 nM | – | – | O=C(NC1CCCCC1)[C@H]1CCCN1C1CCC1 [Example 103] |
| 100% | 6 nM | – | – | CCCN1CCC[C@@H]1C(=O)NC1(C)CCCCC1 [Example 104] |
| 82% | 15 nM | – | – | CCC(C)N1CCC[C@@H]1C(=O)NC1CCCCC1 (stereo partly drawn) [Example 105] |
| 100% | 2 nM | – | – | CCCN1CCC[C@@H]1C(=O)NC1CCC(C)CC1 (stereo partly drawn) [Example 106] |
| 100% | 2 nM | – | – | CN(C)CCN1CCC[C@@H]1C(=O)NC1C2CC3CC(C2)CC1C3 (stereo partly drawn) [Example 107] |

| inhibition at 0.1 µM | Ki | % inh @ 0.1 μM | % inh @ 0.1 μM (0.1 µM) | Structure (SMILES) |
| --- | --- | --- | --- | --- |
| 100% | 9 nM | – | – | CN(C)CCCN1CCC[C@@H]1C(=O)NC1C2CC3CC(C2)CC1C3 (stereo partly drawn) [Example 108] |
| 77% | – | – | – | CCN(CC)CCN1CCC[C@@H]1C(=O)NC1C2CC3CC(C2)CC1C3 (stereo partly drawn) [Example 109] |
| 100% | – | – | – | CN(CCN1CCC[C@@H]1C(=O)NC1C2CC3CC(C2)CC1C3)Cc1ccccc1 (stereo partly drawn) [Example 110, 1-[2-(Benzyl-methyl-amino)ethyl]-pyrrolidine-2-carboxylic acid adamantan-2-ylamide] |
| 96% | – | – | – | CNCCN1CCC[C@@H]1C(=O)NC1C2CC3CC(C2)CC1C3 (stereo partly drawn) [Example 111] |
| 81% | – | – | – | CC(C)(C)OC(=O)N1CCC[C@H]1CN1CCC[C@@H]1C(=O)NC1C2CC3CC(C2)CC1C3 (stereo partly drawn) [Example 112] |
| 100% | – | – | – | CC(C)(C)OC(=O)N1CCC[C@@H]1CN1CCC[C@@H]1C(=O)NC1C2CC3CC(C2)CC1C3 (stereo partly drawn) [Example 113] |
| 100% | – | – | – | CC(C)(C)OC(=O)N1CCC(CN2CCC[C@@H]2C(=O)NC2C3CC4CC(C3)CC2C4)C1 (stereo partly drawn) [Example 114] |
| 100% | – | – | – | O=C(NC1C2CC3CC(C2)CC1C3)[C@H]1CCCN1CC1CCOC1 (stereo partly drawn) [Example 115] |
| 100% | – | – | – | C[C@H](O)CN1CCC[C@@H]1C(=O)NC1C2CC3CC(C2)CC1C3 (stereo partly drawn) [Example 117] |
| 100% | – | – | – | C[C@@H](O)CN1CCC[C@@H]1C(=O)NC1C2CC3CC(C2)CC1C3 (stereo partly drawn) [Example 118] |
| 100% | – | – | – | COC(C)(C)CN1CCC[C@@H]1C(=O)NC1C2CC3CC(C2)CC1C3 (stereo partly drawn) [Example 120] |
| 17% | – | – | – | O=C(NC1C2CC3CC(C2)CC1C3)[C@H]1CCCNC1 (stereo partly drawn) [Example 121, Piperidine-3-carboxylic acid adamantan-2-ylamide] |
| 100% | – | – | – | CC(C)CN1CCC[C@@H]1C(=O)NC12C3C4C1C1C2C3C41C (stereo partly drawn) [Example 122] |
| 100% | – | – | – | CCCN1CCC[C@@H]1C(=O)NC12C3C4C1C1C2C3C41C (stereo partly drawn) [Example 123] |
| 100% | – | – | – | CCN1CCC[C@H](C(=O)NC2C3CC4CC(C3)CC2C4)C1 (stereo partly drawn) [Example 124] |
| 81% | – | – | – | CCCN1CCC[C@H](C(=O)NC2C3CC4CC(C3)CC2C4)C1 (stereo partly drawn) [Example 125] |
| 71% | – | – | – | O=C(NC1C2CC3CC(C2)CC1C3)[C@H]1CCCN1Cc1ccn[nH]1 (stereo partly drawn) [Example 126] |
| 100% | – | – | – | O=C(NC1CCCCC1)[C@H]1CCCN1CCC(F)(F)F [Example 127] |
| 100% | – | – | – | O=C(NC1C2CC3CC(C2)CC1C3)[C@H]1CCCN1CCN1CCOCC1 (stereo partly drawn) [Example 128] |
| 72% | – | – | – | CC(=O)NCCN1CCC[C@@H]1C(=O)NC1C2CC3CC(C2)CC1C3 (stereo partly drawn) [Example 129, 1-(2-Acetylamino-ethyl)pyrrolidine-2-carboxylic acid adamantan-2-ylamide] |
| 56% | – | – | – | CS(=O)(=O)NCCN1CCC[C@@H]1C(=O)NC1C2CC3CC(C2)CC1C3 (stereo partly drawn) [Example 130, 1-(2-Methanesulfonylamino-ethyl)pyrrolidine-2-carboxylic acid adamantan-2-ylamide] |
| 88% | – | – | – | CCN1[C@@H](C(=O)NC2CCCCC2)CCC1(C)C [Example 131] |
| 92% | – | – | – | O=C(NC1C2CC3CC(C2)CC1C3)[C@H]1CCCN1CCN1CCCC1 (stereo partly drawn) [Example 132] |
| 96% | – | – | – | CS(=O)(=O)N1CCC[C@@H]1CN1CCC[C@@H]1C(=O)NC1C2CC3CC(C2)CC1C3 (stereo partly drawn) [Example 134] |

— US20050261290A1, “Novel compounds of proline and morpholine derivatives” (priority 2004, published 2005)
